Laboratory results: patent publication US20150087673A1, “METHODS FOR USING AND BIOMARKERS FOR AMPK-ACTIVATING COMPOUNDS” (RIGEL PHARMACEUTICALS, INC., priority 2013, published 2015)

System: AMPK
Test: AMPK activation assay (enzyme-linked immunosorbent assay)
Format: cell-based
Experimental: Compounds were assayed for their ability to activate AMPK using an enzyme-linked immunosorbent assay. Reagents and procedures for measuring AMPK activation are well known and kits for AMPK activation assays are commercially available.

Compared with COc1ccc(-c2ccc(Nc3ccc(C(=O)NC4CCN(Cc5ccccc5)CC4)nc3)cc2)cc1 [Compound 120, N-(1-benzylpiperidin-4-yl)-5-(4′-methoxybiphenyl-4-ylamino)picolinamide], COc1ccc(C(=O)N2CCN(C(=O)c3ccc(C(=O)NC4CCN(Cc5ccc(C#N)cc5)CC4)nc3)CC2)cc1 [Compound 77, N-(1-(4-cyanobenzyl)piperidin-4-yl)-5-(4-(4-methoxybenzoyl)piperazine-1-carbonyl)picolinamide] is lower in EC50: greater than 10 µM for the first, less than 0.5 µM for the second.

First: N#Cc1ccc(CN2CCC(NC(=O)c3ccc(C(=O)N4CCN(C(=O)C5CCCCC5)CC4)cn3)CC2)cc1 [Compound 89, N-(1-(4-cyanobenzyl)piperidin-4-yl)-5-(4-(cyclohexanecarbonyl)piperazine-1-carbonyl)picolinamide]
Second: N#Cc1ccc(CN2CCC(NC(=O)c3ccc(C(=O)N4CCC(Oc5ccc(F)cc5F)CC4)nc3)CC2)cc1 [Compound 345, N-(1-(4-cyanobenzyl)piperidin-4-yl)-6-(4-(2,4-difluorophenoxy)piperidine-1-carbonyl)nicotinamide]
The EC50 of the first is higher: 1 to 5 µM for the first, less than 0.5 µM for the second.

First: Cc1cc(CN2CCN(C(=O)c3ccc(C(=O)NC4CCN(Cc5ccccc5)CC4)nc3)CC2)no1 [Compound 85, N-(1-benzylpiperidin-4-yl)-5-(4-((5-methylisoxazol-3-yl)methyl)piperazine-1-carbonyl)picolinamide]
Second: N#Cc1ccc(CN2CCC(NC(=O)c3ccc(C(=O)N4CC(Oc5ccc(C#N)cc5)C4)cn3)CC2)cc1 [Compound 209, N-(1-(4-cyanobenzyl)piperidin-4-yl)-5-(3-(4-cyanophenoxy)azetidine-1-carbonyl)picolinamide]
The EC50 of the first is higher: 1 to 5 µM for the first, less than 0.5 µM for the second.

First: COc1ccc(C(=O)C2CCN(C(=O)c3ccc(C(=O)N[C@@H]4CCN(Cc5ccc(C#N)c(F)c5)C[C@H]4F)cn3)CC2)cc1 (relative stereo) [Compound 354, N-((trans)-1-(4-cyano-3-fluorobenzyl)-3-fluoropiperidin-4-yl)-6-(4-(4-methoxybenzoyl)piperidine-1-carbonyl)nicotinamide]
Second: COc1ccc(CN2CCC(NC(=O)c3ccc(C(=O)N4CCC(C(=O)c5ccc(S(C)(=O)=O)cc5)CC4)nc3)CC2)cc1 [Compound 223, N-(1-(4-methoxybenzyl)piperidin-4-yl)-6-(4-(4-(methylsulfonyl)benzoyl)piperidine-1-carbonyl)nicotinamide]
The EC50 of the first is lower: less than 0.5 µM for the first, 1 to 5 µM for the second. The first is the more potent here.

First: COc1ccc(OC2CCN(C(=O)c3ccc(C(=O)NC4CCN(Cc5ccc(C#N)cc5)CC4)cn3)CC2)c([N+](=O)[O-])c1 [Compound 378, N-(1-(4-cyanobenzyl)piperidin-4-yl)-6-(4-(4-methoxy-2-nitrophenoxy)piperidine-1-carbonyl)nicotinamide]
Second: CS(=O)(=O)c1ccc(OC2CCN(C(=O)c3ccc(C(=O)NC4CCN(Cc5ccc(F)cc5)CC4)cn3)CC2)cc1 [Compound 396, N-(1-(4-fluorobenzyl)piperidin-4-yl)-6-(4-(4-(methylsulfonyl)phenoxy)piperidine-1-carbonyl)nicotinamide]
The EC50 of the first is lower: less than 0.5 µM for the first, 1 to 5 µM for the second.

First: O=C(Nc1ccc(Br)cc1)c1ccc(C(=O)N2CCN(Cc3ccc(F)cc3)CC2)cn1 [Compound 28, N-(4-bromophenyl)-5-(4-(4-fluorobenzyl)piperazine-1-carbonyl)picolinamide]
Second: N#Cc1ccc(CN2CCC(NC(=O)c3ccc(C(=O)NC4CCN(c5ccc(C#N)cc5)CC4)cn3)CC2)cc1 [Compound 166, N2-(1-(4-cyanobenzyl)piperidin-4-yl)-N5-(1-(4-cyanophenyl)piperidin-4-yl)pyridine-2,5-dicarboxamide]
The EC50 of the first is higher: 0.5 to 1 µM for the first, less than 0.5 µM for the second.

Work on COc1ccc(C(=O)C2CCN(C(=O)c3ccc(C(=O)N[C@H]4CC[C@@H](Oc5cc(F)cc(F)c5)CC4)nc3)CC2)cc1 [Compound 300, N-((cis)-4-(3,5-difluorophenoxy)cyclohexyl)-5-(4-(4-methoxybenzoyl)piperidine-1-carbonyl)picolinamide] yielded an EC50 of less than 0.5 µM.
